{"source": "ChEMBL document CHEMBL5385848", "about": "“Discovery of novel hydroxyamidine based indoleamine 2,3-dioxygenase 1 (IDO1) and thioredoxin reductase 1 (TrxR1) dual inhibitors” (Eur J Med Chem, 2023)", "key": {"[1]": {"target": "T1, Thioredoxin reductase 1, cytoplasmic (Rattus norvegicus, UniProt O89049)", "T1 sequence (O89049 whole entry)": "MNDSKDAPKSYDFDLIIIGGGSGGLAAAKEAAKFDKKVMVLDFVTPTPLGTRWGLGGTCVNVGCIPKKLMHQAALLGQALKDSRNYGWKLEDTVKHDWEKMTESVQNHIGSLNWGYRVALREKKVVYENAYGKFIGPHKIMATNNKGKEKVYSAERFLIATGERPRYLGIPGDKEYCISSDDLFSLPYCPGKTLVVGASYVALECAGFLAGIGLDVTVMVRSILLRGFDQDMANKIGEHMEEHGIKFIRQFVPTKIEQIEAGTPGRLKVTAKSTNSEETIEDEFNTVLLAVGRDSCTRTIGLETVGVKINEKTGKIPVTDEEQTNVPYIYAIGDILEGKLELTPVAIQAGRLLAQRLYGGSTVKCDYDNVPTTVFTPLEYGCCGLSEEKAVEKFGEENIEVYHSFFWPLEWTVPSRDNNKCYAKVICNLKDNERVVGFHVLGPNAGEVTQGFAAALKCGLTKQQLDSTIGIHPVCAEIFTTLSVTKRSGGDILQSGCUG", "assay": "Inhibition of recombinant rat TrxR1 incubated for 1 hr in presence of NADPH by microplate reader analysis"}, "HeLa [2]": {"test_system": "HeLa", "assay": "Cytotoxicity against TrxR1 knockdown human HeLa cells incubated for 24 hrs by CCK-8 assay (reference value: 13.79 +/- 2 uM)", "assay_type": "functional, cell-based"}, "HCT-116 [3]": {"test_system": "HCT-116", "assay": "Induction of ROS generation in human HCT-116 cells incubated for 4 hrs by DCFH-DA staining based flow cytometry analysis", "assay_type": "functional, cell-based", "settings": "dose 2.5-10 µM"}, "HCT-116 [4]": {"test_system": "HCT-116", "assay": "Antitumor activity against human HCT-116 cells xenografted in ig dosed athymic nude BALB/c mouse assessed as tumor growth inhibition administered daily for 28 days and measured every 4 days", "assay_type": "functional, organism-based", "settings": "dose 15-60 mg/kg, time 28.0 day"}, "HCT-116 [5]": {"test_system": "HCT-116", "assay": "Induction of apoptosis in human HCT-116 cells assessed as caspase-3 activation incubated for 24 hrs", "assay_type": "functional, cell-based", "settings": "dose 2.5-10 µM"}, "HCT-116 [6]": {"test_system": "HCT-116", "assay": "Induction of cell cycle arrest in human HCT-116 cells assessed as G1/S phase arrest at 2.5 to 10 uM pretreated with NAC for 2 hrs followed by compound addition and measured after 12 hrs by PI staining based flow cytometry analysis", "assay_type": "functional", "settings": "dose 2.5-10 µM"}, "HCT-116 [7]": {"test_system": "HCT-116", "assay": "Antitumor activity against human HCT-116 cells xenografted in athymic nude BALB/c mouse assessed as increase in apoptotic cells at 15 to 60 mg/kg, ig administered daily for 28 days and measured every 4 days by tunel assay", "assay_type": "functional, organism-based", "settings": "dose 15-60 mg/kg, time 28.0 day"}, "HCT-116 [8]": {"test_system": "HCT-116", "assay": "Antitumor activity against human HCT-116 cells xenografted in athymic nude BALB/c mouse assessed as reduction in mitosis of tumor cells at 15 to 60 mg/kg, ig administered daily for 28 days and measured every 4 days", "assay_type": "functional, organism-based", "settings": "dose 15-60 mg/kg, time 28.0 day"}, "[9]": {"assay": "Toxicity in athymic BALB/c mouse xenografted with human HCT-116 cells assessed as change in kidney morphology at 15 to 60 mg/kg, ig administered daily for 28 days and measured every 4 days", "assay_type": "organism-based", "settings": "in vivo, po, 672 h, dose 15-60 mg/kg, time 28 day"}, "HeLa [10]": {"test_system": "HeLa", "assay": "Cytotoxicity against human HeLa cells incubated for 24 hrs in presence of NAC CCK-8 assay", "assay_type": "functional, cell-based"}, "CT26 [11]": {"test_system": "CT26", "assay": "Antitumor activity against mouse CT26 cells implanted in athymic nude BALB/c mouse assessed as increase in CTL proliferation by measuring Ki67 expression at 15 to 60 mg/kg, ig administered daily for 28 days and measured every 4 days by flow cytometry analysis", "assay_type": "functional, organism-based", "settings": "dose 15-60 mg/kg, time 28.0 day"}, "IDO1 [12]": {"test_system": "IDO1", "assay": "Selectivity ratio of IC50 for cytotoxicity against mouse CT26 cells to EC50 for inhibition of IDO1 in mouse CT26 cells", "assay_type": "cell-based", "settings": "read-out: Ratio IC50/EC50"}, "HeLa [13]": {"test_system": "HeLa", "assay": "Induction of ROS generation in human HeLa cells incubated for 4 hrs by DCFH-DA staining based flow cytometry analysis", "assay_type": "functional, cell-based", "settings": "dose 2.5-10 µM"}, "HCT-116 [14]": {"test_system": "HCT-116", "assay": "Induction of apoptosis in human HCT-116 cells assessed as apoptotic rate at 5 uM incubated for 24 hrs by Annexin-V/PI staining based flow cytometry analysis", "assay_type": "functional"}, "[15]": {"target": "Indoleamine 2,3-dioxygenase 1 (Homo sapiens, UniProt P14902)", "sequence (P14902 whole entry)": "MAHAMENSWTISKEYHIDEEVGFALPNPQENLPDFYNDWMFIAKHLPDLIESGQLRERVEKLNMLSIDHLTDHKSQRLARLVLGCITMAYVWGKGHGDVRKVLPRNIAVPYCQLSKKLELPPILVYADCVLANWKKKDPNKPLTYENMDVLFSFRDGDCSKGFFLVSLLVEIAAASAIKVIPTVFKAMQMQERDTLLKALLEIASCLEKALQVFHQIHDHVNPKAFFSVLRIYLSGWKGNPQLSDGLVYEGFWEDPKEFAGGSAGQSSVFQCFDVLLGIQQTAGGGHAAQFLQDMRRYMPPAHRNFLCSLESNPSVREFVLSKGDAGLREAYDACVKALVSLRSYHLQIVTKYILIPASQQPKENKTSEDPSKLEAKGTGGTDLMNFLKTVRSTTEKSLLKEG", "assay": "Inhibition of IDO1 in human HeLa cells using L-Tryptophan as substrate incubated for 24 hrs by microplate reader analysis", "assay_type": "cell-based"}, "[16]": {"assay": "Cytotoxicity against human HeLa cells incubated for 48 hrs by CCK-8 assay", "assay_type": "toxicity, cell-based"}, "HCT-116 [17]": {"test_system": "HCT-116", "assay": "Induction of apoptosis in human HCT-116 cells assessed as apoptotic rate at 5 uM pretreated with NAC incubated for 24 hrs by Annexin-V/PI staining based flow cytometry analysis (reference value: 9.8 +/- 1.59%)", "assay_type": "functional"}, "CT26 [18]": {"test_system": "CT26", "assay": "Antitumor activity against mouse CT26 cells implanted in athymic nude BALB/c mouse assessed as increase in CTL proliferation by measuring Ki67 expression at 60 mg/kg, ig administered daily for 28 days and measured every 4 days by immunofluorescence analysis", "assay_type": "functional, organism-based", "settings": "time 28.0 day"}, "HeLa [19]": {"test_system": "HeLa", "assay": "Induction of cell cycle arrest in human HeLa cells assessed as G1/S phase arrest at 2.5 to 10 uM pretreated with NAC for 2 hrs followed by compound addition and measured after 12 hrs by PI staining based flow cytometry analysis", "assay_type": "functional", "settings": "dose 2.5-10 µM"}, "[20]": {"assay": "Toxicity in athymic BALB/c mouse xenografted with human HCT-116 cells assessed as change in spleen morphology at 15 to 60 mg/kg, ig administered daily for 28 days and measured every 4 days", "assay_type": "organism-based", "settings": "in vivo, po, 672 h, dose 15-60 mg/kg, time 28 day"}, "HCT-116 [21]": {"test_system": "HCT-116", "assay": "Cytotoxicity against human HCT-116 cells transfected with IDO1 siRNA incubated for 24 hrs by CCK-8 assay (reference value: 3.49 +/- 0.28 uM)", "assay_type": "functional, cell-based", "settings": "HCT-116, 24 h"}, "[22]": {"target": "Indoleamine 2,3-dioxygenase 1 (Mus musculus) (UniProt P28776)", "sequence (P28776 whole entry, looked up)": "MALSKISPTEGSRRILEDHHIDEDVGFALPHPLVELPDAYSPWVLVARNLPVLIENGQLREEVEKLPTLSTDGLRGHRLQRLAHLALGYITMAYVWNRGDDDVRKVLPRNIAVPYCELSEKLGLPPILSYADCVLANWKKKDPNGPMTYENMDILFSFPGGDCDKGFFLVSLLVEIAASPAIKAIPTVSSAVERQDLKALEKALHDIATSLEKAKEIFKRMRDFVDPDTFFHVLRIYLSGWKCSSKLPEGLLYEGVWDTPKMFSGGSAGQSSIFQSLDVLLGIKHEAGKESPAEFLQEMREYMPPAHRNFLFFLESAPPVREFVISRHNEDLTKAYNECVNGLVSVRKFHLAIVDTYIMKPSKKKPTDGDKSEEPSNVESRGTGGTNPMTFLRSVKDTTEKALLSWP", "assay": "In vivo inhibition of IDO1 in C57BL/6 mouse assessed as increase in plasma Trp level at 60 mg/kg, po administered once daily by LC-MS/MS analysis", "assay_type": "functional, organism-based"}, "[23]": {"assay": "Cytotoxicity against mouse CT26 cells incubated for 48 hrs by CCK-8 assay", "assay_type": "toxicity, cell-based"}, "HCT-116 [24]": {"test_system": "HCT-116", "assay": "Antiproliferative activity against human HCT-116 cells assessed as cell growth inhibition incubated for 48 hrs by CCK-8 assay", "assay_type": "functional, cell-based", "settings": "HCT-116, 48 h"}, "IDO1 [25]": {"test_system": "IDO1", "assay": "Selectivity ratio of IC50 for cytotoxicity against human HCT-116 cells to EC50 for inhibition of IDO1 in human HCT-116 cells", "assay_type": "cell-based", "settings": "read-out: Ratio IC50/EC50"}, "[26]": {"target": "Indoleamine 2,3-dioxygenase 1 (Mus musculus) (UniProt P28776)", "assay": "In vivo inhibition of IDO1 in BALB/c mouse implanted with mouse CT-26 cells assessed as reduction in plasma Kyn/Trp ratio at 60 mg/kg, po administered once daily by LC-MS/MS analysis", "assay_type": "functional, organism-based"}, "[27]": {"target": "Indoleamine 2,3-dioxygenase 1 (Mus musculus) (UniProt P28776)", "assay": "In vivo inhibition of IDO1 in BALB/c mouse implanted with mouse CT-26 cells assessed as reduction in plasma Kyn level at 60 mg/kg, po administered once daily by LC-MS/MS analysis", "assay_type": "functional, organism-based"}, "HeLa [28]": {"test_system": "HeLa", "assay": "Cytotoxicity against human HeLa cells incubated for 24 hrs CCK-8 assay", "assay_type": "functional, cell-based"}}, "note": "Activity calls are given as the source filed them. The calls are words filed in the database; no cut-off is given here.", "data": [{"smiles": "O=C(Cc1ccc(O)cc1)Nc1nnc(CCCNc2nonc2/C(=N\\O)Nc2ccc(F)c(Br)c2)s1", "values": [{"measurement": "IC50", "setting": "[1]", "result": 3, "unit": "µM"}, {"measurement": "IC50", "setting": "HeLa [2]", "result": 7.2, "unit": "µM"}, {"measurement": "Activity", "setting": "HCT-116 [3]", "result": "Dose-Dependent Effect"}, {"measurement": "Activity", "setting": "HCT-116 [4]", "result": "Active"}, {"measurement": "Activity", "setting": "HCT-116 [5]", "result": "Dose-Dependent Effect"}, {"measurement": "Activity", "setting": "HCT-116 [6]", "result": "inactive"}, {"measurement": "Activity", "setting": "HCT-116 [7]", "result": "Active"}, {"measurement": "Activity", "setting": "HCT-116 [8]", "result": "Active"}, {"measurement": "Activity", "setting": "[9]", "result": "Non-Toxic"}, {"measurement": "IC50", "setting": "HeLa [10]", "result": 74.2, "unit": "µM"}, {"measurement": "Activity", "setting": "CT26 [11]", "result": "Active"}, {"measurement": "selectivity ratio", "setting": "IDO1 [12]", "result": 5.35}, {"measurement": "Activity", "setting": "HeLa [13]", "result": "Dose-Dependent Effect"}, {"measurement": "Activity", "setting": "HCT-116 [14]", "result": 30.64, "unit": "%"}, {"measurement": "EC50", "setting": "[15]", "result": 45.6, "unit": "µM"}, {"measurement": "IC50 at 48 h", "setting": "[16]", "result": 10.2, "unit": "µM"}, {"measurement": "Activity", "setting": "HCT-116 [17]", "result": 11.98, "unit": "%"}, {"measurement": "Activity", "setting": "CT26 [18]", "result": "Active"}, {"measurement": "Activity", "setting": "HeLa [19]", "result": "Active"}, {"measurement": "Activity", "setting": "[20]", "result": "Non-Toxic"}, {"measurement": "IC50", "setting": "HCT-116 [21]", "result": 3.79, "unit": "µM"}, {"measurement": "Activity", "setting": "[22]", "result": "Active"}, {"measurement": "IC50 at 48 h", "setting": "[23]", "result": 12.4, "unit": "µM"}, {"measurement": "IC50", "setting": "HCT-116 [24]", "result": 3.44, "unit": "µM"}, {"measurement": "selectivity ratio", "setting": "IDO1 [25]", "result": 101}, {"measurement": "Activity", "setting": "[26]", "result": "Active"}, {"measurement": "Activity", "setting": "[27]", "result": "Active"}, {"measurement": "IC50", "setting": "HeLa [28]", "result": 16.1, "unit": "µM"}]}]}
